Literature values, collected in patent US4794170A (priority 1984, dated 1988).

How the values were obtained:
virus B = details: chronical hepatitis induced by virus B
hepatocytes = details: mouse

Compound | virus replication (virus B) | hepatic targeting of ara-A (hepatocytes)
Nc1ncnc2c1ncn2[C@@H]1O[C@H](CO)[C@@H](O)[C@@H]1O [ara-A, adenine-9-beta-D-arabinoside] | inhibit the virus replication | –
Nc1ncnc2c1ncn2[C@@H]1O[C@H](COP(=O)(O)O)[C@@H](O)[C@@H]1O [ara-AMP, adenine-9-beta-D-arabinofuranoside 5'monophosphate] | inhibit the virus replication | –
ara-A-glut-AF: ara-A glutarate bonded to the asialofetuine (AF) through its hydroxysuccinimidic ester | – | pharmacologically active in producing in the mouse a hepatic targeting of ara-A
